The values below come from PMC6100259, “Insights into Structure-Activity Relationships of 3-Arylhydrazonoindolin-2-One Derivatives for Their Multitarget Activity on β-Amyloid Aggregation and Neurotoxicity” (Molecules : A Journal of Synthetic Chemistry and Natural …, 2018).

The target in data set [1] is T1, Aβ40 peptide (Homo sapiens, UniProt P05067).
T1 construct: we preferred using Aβ40 peptide
Nature of the data set: Inhibition of Aβ40 aggregation, ThT fluorescence-based method. The data set is classed as biochemical. Here is the method: In vitro inhibition of Aβ aggregation was assessed through a ThT fluorescence-based method, with the use of 2% 1,1,1,3,3,3-hexafluoroisopropanol (HFIP) as aggregation enhancer. In this medium-throughput assay, we preferred using Aβ40 peptide, being more manageable than Aβ42 and less prone to the formation of preaggregates. Samples of Aβ were co-incubated with test molecules in PBS at 100 µM concentration and the antiaggregating activities were measured after 2 h of incubation at 25 °C. For compounds showing >80% Aβ40 aggregation inhibition, IC50s were determined.
(§1) The spectrofluorimetric assays, measuring ThT fluorescence in the presence of Aβ, were done as previously described. Briefly, coincubation samples were prepared as described above (Section 2.2 and Section 2.3) in 96-well black, non-binding microplates (Greiner Bio-One GmbH, Frickenhausen, Germany). Fluorimetric reads were performed in a multiplate reader Infinite M1000 Pro (Tecan, Cernusco sul Naviglio, Italy). Each concentration point was run in triplicate. CD ellipticity measures were performed as detailed in ref. [20], following the increase of the negative band at 215 nm as indicative of β-sheet arrangement.

Data set [2] is described as follows: Lipophilicity by RP-HPLC (log k'w). Particulars: RP-HPLC C18, MeOH/10 mM ammonium formate buffer pH 4.5, extrapolated to 100% aqueous mobile phase, 25 °C. The format is physicochemical. As to the method: To place on a more quantitative basis the above SAR trends, the lipophilicity of a number of isatin arylhydrazone derivatives was measured by an RP-HPLC method. The polycratic capacity factors (log k’w) were determined (details in the Experimental Section). Lipophilicity descriptors (i.e., 1-octanol–water partition coefficients) were also calculated (CLOGPs) using two computational tools (Bio-Loom software, v. 1.7 and ACDLabs software, release 10.0). The ACDLabs software was used also for calculating descriptors of polarizability and size, namely molar refractivity (CMR) and molar volume (MV). The experimental lipophilicity parameters (log k’w), along with CMR and MV, are reported in Table 6 for 18 compounds achieving finite IC50s (<100 µM) in the Aβ aggregation assay.
The lipophilicity parameters were determined by an RP-HPLC technique. Methanol solutions of the investigated hydrazone compounds (0.5 mg/mL) were injected into an Agilent 1260 infinity HPLC system (Agilent Technologies Italia, Milan), equipped with a diode array detector (DAD), and a Phenomenex Kinetex C18 column (150 × 4.6 mm, 5 μ, Phenomenex Italy s.r.l., Castel Maggiore, BO, Italy), and eluted at different mobile phase compositions (0.05 increments of MeOH volume fraction in 10 mM ammonium formate buffer at pH 4.5, ranging ϕ between 0.85 and 0.30). All RP-HPLC measurements were carried out at 25 ± 1 °C, at a flow rate of 1.0 mL/min, and at 254 nm wavelength.
The logarithm of capacity factors (log k′ = log (tR − t0)/t0) of each compound at different mobile phase compositions have been calculated; tR represents the retention time of the solute and t0 is the column dead time, measured as the elution time of a KNO3 solution in MeOH. For each compound, the log k′ values increased linearly with decreasing MeOH volume fraction. Logarithms of capacity factors extrapolated to the 100% aqueous mobile phase (log k′w) were calculated from the linear regressions on at least five data points (r^2 > 0.975).

Data set [3] can be described thus: Aqueous solubility in Tris/HCl buffer. The data set is classed as physicochemical. The settings on record: pH 7.4 at 25 °C. The source says:
Based on data in Table 1, Table 2, Table 3, Table 4 and Table 5, compound 28 was selected for further biological and biophysical studies, aimed at elucidating the mechanism of disruption of Aβ aggregation, and evaluating the activity in biochemical assays related to neurodegeneration, and cytoprotection in a cell model of Aβ toxicity. Starting from the evidence that a bulky substituent led to a net improvement of antiaggregating activity (Table 5), we chose the N^1-cyclopropyl derivative 28 as the best compromise between in vitro activity and aqueous solubility.

For the next data set, the target named is Aβ42 peptide (Homo sapiens, UniProt P05067). Nature of the data set: Kinetics of Aβ42 fibrillization (ThT fluorescence and CD). The format is biochemical. The settings on record: 50 µM Aβ42 with 20 µM compound, PBS 2% ethanol, 37 °C, after one week. As to the method: For ThT and circular dichroism (CD) time-course measures of Aβ aggregation (50 µM), alone or in the presence of 28 (20 µM), samples were prepared in PBS containing 2% v/v ethanol as the cosolvent, and incubated at 37 °C. Aβ42 peptide was preferred, being the principal responsible of amyloid burden in AD brain. Kinetics of amyloid aggregation of Aβ42 was followed by means of ThT fluorescence and CD absorption. In the latter case, we monitored the increase of the negative band at 215 nm, probing the random coil to β-sheet transition in folding peptide. Results depicted in Figure 4 show a fast fibrillization of self-aggregating peptide (dotted black line), with fibrils already detectable in large amount in the first 48 h of incubation.
as §1

The test system of data set [4] is SH-SY5Y cells. Nature of the data set: Protection from Aβ42-induced cytotoxicity, MTT assay. The data set is classed as cell-based, human. Particulars: 5 µM Aβ42 co-incubated with equimolar 5 µM compound, within two days. Here is the method: (§2) Protection from Aβ42-induced cytotoxicity was measured for compound 28 in a conventional cell-based assay, measuring cell viability by means of MTT reduction. Antioxidant activity of 28 was assessed in an H2O2-induced oxidation cell model. Reactive oxygen species (ROS) production was detected by means of a spectrofluorometric measure of the fluorescent probe 2′,7′-dichlorofluorescein (DCF), formed by oxidation of 2′,7′-dichlorodihydrofluorescein (DCFH). In both assays, human SH-SY5Y neuroblastoma cell line was used.
Cytoprotection from Aβ42-induced neurotoxicity and from ROS generation was assessed in SH-SY5Y cells as already described. At least three independent experiments with six replicates (n ≥ 18) were carried out, and the results were averaged. Briefly, for MTT assay, SH-SY5Y cells were cultured in DMEM-Dulbecco’s modified Eagle’s medium (Sigma-Aldrich), grown to 70% confluence and seeded for experiment in 96-well plates at a density of 10,000 cells/well. Cultured cells were added with a DMEM solution of Aβ42, alone or in mixture with 28 (5 μM final concentration of both) and incubated at 37 °C in 5% CO2. […] After removal of solution and addition of DMSO, the absorbance of product formazan produced from MTT was measured at 570 nm using a multilabel plate counter Victor3 V (Perkin Elmer, Milan, Italy), with DMSO medium as the blank solution.

The test system of data set [5] is SH-SY5Y cells. Nature of the data set: Antioxidant activity, H2O2-induced ROS production, DCFH-DA assay. The format is cell-based. Particulars: Homo sapiens, 20 µM compound, 100 µM hydrogen peroxide, read-out: ROS scavenging, maximum effect relative to effect of 100 µM quercetin. Here is the method: as §2
Intracellular ROS production was evaluated using an oxidation-sensitive fluorescent probe, 2′,7′-dichlorodihydrofluorescin diacetate (DCFH-DA; Sigma-Aldrich). Viable SHSY5Y cells were seeded in a black 96-well cell culture plate for 24 h, then the cells were incubated in DMEM supplemented with different concentration (0 to 20 μM) of 28 for 1 h. After washing, DCFH-DA (50 μM final concentration) was added directly to each well, and the plate was incubated at 37 °C in 5% CO2 for 0.5 h. […] The formation of fluorescent dichlorofluorescein (DCF) due to oxidation of DCFH in the presence of ROS was read directly in each well at an excitation wavelength of 485 nm and an emission wavelength of 530 nm using a multilabel plate reader Victor3 V (Perkin Elmer), with DMSO medium as the control.

For data set [6], the target named is T1, Aβ40 peptide. Further details: method as in PMID 21144622. Particulars: read-out: IC50 inhibition of Aβ40 aggregation; hit compound, previously reported; cited from earlier work.
A further data set deals with AChE. The arrangement: method as in PMID 28801274. The settings on record: read-out: IC50 AChE inhibition; cited from earlier work.
On the set-up of data set [7]: method as in PMID 28801274. The settings on record: pH 7.4 and 37 °C; cited from earlier work.
On the set-up of data set [8]: method as in PMID 28801274. The settings on record: Tris/HCl buffer, pH 7.4 at 25 °C; cited from earlier work.

Converted amounts (≈) assume the structure as drawn. Read-outs that look alike come from different tables or passages of the source.

T1 sequence (P05067 672-711 limits assumed): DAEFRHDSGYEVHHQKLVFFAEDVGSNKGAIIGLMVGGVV
Aβ42 peptide, sequence (P05067 672-713 limits assumed): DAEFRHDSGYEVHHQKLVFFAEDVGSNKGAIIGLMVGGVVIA

By solubility is commonly meant the concentration that dissolves in the medium under given conditions. In the case of `COc1ccc2c(c1)/C(=N/Nc1ccc(C(C)C)cc1)C(=O)N2C1CC1` [Compound 28, (Z)-1-Cyclopropyl-3-(2-(4-isopropylphenyl)hydrazono)-5-methoxyindolin-2-one], at Aβ40 peptide [1], the IC50 was 800 ± 130 nM. The “log k'w” value in [2] is on record as 6.36. Besides, the concentration in solution in data set [3] (solubility) was 21 µM (≈ 7.34 µg/mL). Further, the “fibril content compared with that of control peptide” value on Aβ42 peptide is “about 30%”. In addition, the “cell viability (MTT reduction)” value with SH-SY5Y cells [4] is reported as “fully viable”. Also, the Emax at 20 µM with SH-SY5Y cells [5] is approximately 50%.

A word on the half-life: it is the time in which the quantity being followed falls by half. Regarding `COc1ccc2c(c1)/C(=N/Nc1ccc(C(C)C)cc1)C(=O)N2` [Compound 1, (3Z)-5-methoxy-1H-indole-2,3-dione 3-[(4-isopropylphenyl)hydrazone]], the IC50 at Aβ40 peptide [1] (Aβ40 aggregation inhibition, read-out: pIC50, Aβ antiaggregating potency (converted)) is 398 nM; at Aβ40 peptide [6], 430 ± 40 nM; with AChE, 6250 nM. Moreover, the “log k'w” value in data set [2] is recorded as 5.44. In addition, the half-life in [7] is 24 h. For the same compound, the solubility in [8] is on record as 71 µM (≈ 22 µg/mL).
